Test results from patent US5270319A, “5-hydroxy-2-pyrimidinylmethylene derivatives useful as antiinflammatory agents” (Warner-Lambert Company, priority 1992, dated 1993).

Tests used:
5-Lipoxygenase = molecular target: T1, 5-Lipoxygenase (Rattus norvegicus, UniProt P12527); assay: ARBL whole cell 5-lipoxygenase assay (LTB4 formation in RBL-1 cells); format: cell-based; settings: A23187 (5 μM) stimulated, LTB4 formation by RIA, read-out: % Inhibition at 10 μM Conc, ARBL
T1 construct: host or cells: RBL-1 (rat basophilic leukemia)
T1 sequence (P12527 1-673): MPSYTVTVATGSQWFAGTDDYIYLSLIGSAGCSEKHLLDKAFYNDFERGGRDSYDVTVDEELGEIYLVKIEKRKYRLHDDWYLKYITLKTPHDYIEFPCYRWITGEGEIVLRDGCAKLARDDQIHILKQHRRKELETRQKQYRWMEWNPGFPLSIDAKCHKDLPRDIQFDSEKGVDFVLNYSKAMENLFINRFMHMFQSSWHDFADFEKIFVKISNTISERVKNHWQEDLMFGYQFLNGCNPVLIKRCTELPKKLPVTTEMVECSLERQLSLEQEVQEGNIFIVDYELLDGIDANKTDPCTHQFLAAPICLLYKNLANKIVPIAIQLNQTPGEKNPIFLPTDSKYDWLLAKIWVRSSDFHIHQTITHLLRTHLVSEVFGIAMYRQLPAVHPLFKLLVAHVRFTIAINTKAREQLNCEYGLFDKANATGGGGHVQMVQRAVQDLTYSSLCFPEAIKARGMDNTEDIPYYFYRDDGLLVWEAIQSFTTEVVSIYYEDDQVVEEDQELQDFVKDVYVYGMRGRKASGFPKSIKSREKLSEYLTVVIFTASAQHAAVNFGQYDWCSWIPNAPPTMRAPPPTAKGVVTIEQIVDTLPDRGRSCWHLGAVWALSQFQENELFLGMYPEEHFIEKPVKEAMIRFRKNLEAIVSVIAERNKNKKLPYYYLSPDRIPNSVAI
Protocol: (§1) A description of each procedure follows. ARBL/ARBC Whole Cell 5-Lipoxygenase and Cyclooxygenase Assays The rat basophilic leukemia cell line (RBL-1) was obtained from the American Type Culture Collection (Rockville, Md.). Radioimmunoassay (RIA) kits of LTB4 and PGF2α were obtained from Amersham (Arlington Heights, Ill.) and Seragen (Boston, Mass.), respectively. All tissue culture media were obtained from GIBCO (Grand Island, N.Y.). RBL-1 cells are grown in suspension culture in Eagle's minimum essential medium supplemented with 12% fetal bovine serum at 37° C. in an incubator supplied with air-5% carbon dioxide. Cells are harvested by centrifugation. They are washed with cold phosphate buffered saline pH 7.4 (PBS; NaCl, 7.1 g; NaHPO, 1.15 g; KHPO, 0.2 g; and KCl, 0.2 g/l). Cells are finally suspended in PBS containing 1.0 mM calcium at a density of […] cells/ml. Cells are incubated with and without test agent (in DMSO) (1% DMSO is without effect on arachidonic acid metabolism) for ten minutes at room temperature. Calcium ionophore A23187 (5 μM) is added and cells are incubated for seven minutes at 37° C. The reaction is stopped by chilling the tubes on ice for ten minutes. Cells are separated by centrifugation and the supernatant is stored at […]. Aliquots (100 μL) are analyzed for LTB4 and PGF2α using radioimmunoassay kits as provided by the supplier. Biochemical data obtained from this whole cell assay may be shown as IC50 s which are calculated as the amount of test compound causing 50% inhibition of LTB4 or PGF2α formation. The following Table exemplifies the data for the present invention.

Cyclooxygenase = assay: ARBC whole cell cyclooxygenase assay (PGF2α formation in RBL-1 cells); format: cell-based, rat; settings: A23187 (5 μM) stimulated, PGF2α formation by RIA
Protocol: as §1

Row | SMILES | inhibition at 10 µM (5-Lipoxygenase) | % Inhibition at 10 μM Conc, ARBC (Cyclooxygenase)
1 | CC(C)(C)c1nc(C=C2SC(=S)NC2=O)nc(C(C)(C)C)c1O [Example 6, 5-[[4,6-Bis-(1,1-dimethylethyl)-5-hydroxy-2-pyrimidinyl]methylene]-2-thioxo-4-thiazolidinone] | 91% | 81%
2 | CC(C)(C)c1nc(C=C2SC(=O)NC2=O)nc(C(C)(C)C)c1O [Example 8] | 60% | 68%
3 | CC(C)(C)c1nc(C=C2SC(=N)NC2=O)nc(C(C)(C)C)c1O [Example 7, 5-[[4,6-Bis-(1,1-dimethylethyl]-5-hydroxy-2-pyrimidinyl]methylene]-2-imino-4-thiazolidinone] | 32% | 56%

More lines, main results first:

Row | inhibition at 10 µM (5-Lipoxygenase) | SMILES | % Inhibition at 10 μM Conc, ARBC (Cyclooxygenase)
4 | 46% | CON1CCC(=Cc2nc(C(C)(C)C)c(O)c(C(C)(C)C)n2)C1=O [Example 15, 3-[[4,6-Bis-(1,1-dimethylethyl)-5-hydroxy-2-pyrimidinyl]methylene]-N-methoxy-pyrrolidin-2-one] | 88%
5 | 100% | CC(C)(C)c1nc(C=C2CCOC2=O)nc(C(C)(C)C)c1O [Example 16] | 93%
